Assay results: PMC6532652, “Enantiospecific Synthesis, Chiral Separation, and Biological Activity of Four Indazole-3-Carboxamide-Type Synthetic Cannabinoid Receptor Agonists and Their Detection in Seized Drug Samples” (Frontiers in Chemistry, 2019)

How the values were obtained:
CB2 = biological target: T1, CB2 (Homo sapiens, UniProt P34972); test: NanoLuc complementation beta-arrestin […] recruitment, live cells; type: cell-based; conditions: read-out: CB2 / EC50 (nM) (± 95% CI)
T1 construct: gene CNR2; co-expressed with beta-arrestin 2 fused to the complementary fragment

CB1 = biological target: T2, CB1 (Homo sapiens, UniProt P21554); test: as above; type: cell-based; conditions: read-out: CB1 / EC50 (nM) (± 95% CI)
T2 construct: gene CNR1; co-expressed with beta-arrestin 2 fused to the complementary fragment
T2 sequence (P21554 whole entry, the tested form may be a part): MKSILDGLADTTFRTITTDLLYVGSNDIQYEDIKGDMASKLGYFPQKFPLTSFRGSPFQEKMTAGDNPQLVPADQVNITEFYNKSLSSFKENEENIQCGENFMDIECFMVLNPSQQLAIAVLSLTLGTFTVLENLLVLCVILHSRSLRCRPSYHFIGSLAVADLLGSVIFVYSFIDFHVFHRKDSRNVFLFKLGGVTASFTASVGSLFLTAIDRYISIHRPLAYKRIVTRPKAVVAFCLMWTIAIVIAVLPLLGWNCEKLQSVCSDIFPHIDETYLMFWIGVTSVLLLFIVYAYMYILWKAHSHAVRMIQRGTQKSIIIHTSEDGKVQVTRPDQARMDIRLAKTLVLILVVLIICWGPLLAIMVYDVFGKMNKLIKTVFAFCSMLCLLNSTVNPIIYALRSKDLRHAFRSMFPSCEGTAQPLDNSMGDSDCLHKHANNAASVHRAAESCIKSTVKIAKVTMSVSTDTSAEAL

T1 sequence (P34972 whole entry, the tested form may be a part): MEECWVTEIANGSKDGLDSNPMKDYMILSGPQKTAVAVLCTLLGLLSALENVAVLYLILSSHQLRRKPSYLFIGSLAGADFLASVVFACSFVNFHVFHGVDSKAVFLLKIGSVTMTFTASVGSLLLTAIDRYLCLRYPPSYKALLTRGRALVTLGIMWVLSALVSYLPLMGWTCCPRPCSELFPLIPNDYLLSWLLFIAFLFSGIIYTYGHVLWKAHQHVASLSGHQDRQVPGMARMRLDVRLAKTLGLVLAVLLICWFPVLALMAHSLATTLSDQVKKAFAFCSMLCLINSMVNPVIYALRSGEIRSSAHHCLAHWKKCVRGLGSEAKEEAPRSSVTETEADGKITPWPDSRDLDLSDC

SMILES	EC50 (CB2) [nM]	EC50 (CB1) [nM]
CC(C)[C@@H](NC(=O)c1nn(Cc2ccc(F)cc2)c2ccccc12)C(N)=O [compound 1, (R)-AB-FUBINACA]	102	1480
CC(C)[C@H](NC(=O)c1nn(Cc2ccc(F)cc2)c2ccccc12)C(N)=O [compound 1, N-(2S)-(1-amino-3-methyl-1-oxobutan-2-yl)-1-(4-fluorobenzyl)-1H-indazole-3-carboxamide]	1.6	12.9
COC(=O)[C@H](NC(=O)c1nn(Cc2ccc(F)cc2)c2ccccc12)C(C)C [compound 2, (R)-AMB-FUBINACA]	1.19	55.8
COC(=O)[C@@H](NC(=O)c1nn(Cc2ccc(F)cc2)c2ccccc12)C(C)C [compound 2, methyl (2S)-2-(1-(4-fluorobenzyl)-1H-indazole-3-carboxamido)-3-methylbutanoate]	0.77	9.11
COC(=O)[C@H](NC(=O)c1nn(CCCCCF)c2ccccc12)C(C)(C)C [compound 3, (R)-5F-MDMB-PINACA]	6.87	131
COC(=O)[C@@H](NC(=O)c1nn(CCCCCF)c2ccccc12)C(C)(C)C [compound 3, (S)-5F-MDMB-PINACA]	1.46	1.78
CC(C)[C@@H](NC(=O)c1nn(CC2CCCCC2)c2ccccc12)C(N)=O [compound 4, (R)-AB-CHMINACA]	33.6	319
CC(C)[C@H](NC(=O)c1nn(CC2CCCCC2)c2ccccc12)C(N)=O [compound 4, N-(2S)-(1-amino-3-methyl-1-oxobutan-2-yl)-1-(cyclohexylmethyl)-1H-indazole-3-carboxamide]	1.75	6.16
CCCCCn1cc(C(=O)c2cccc3ccccc23)c2ccccc21 [compound 19, JWH-018, reference compound]	9.71	45.1
